In paper PMC7198493 (Nature Communications, 2020):
Numbering of substitutions follows the chain as printed.

What was measured:
Assay type in all cases: binding
[1] = target: T1, olfactory marker protein (OMP) (Mus musculus, UniProt Q64288, G126E); experiment: BRET from mutant Rluc-OMP to 8NBD-cAMP
T1 construct: Rluc-OMP fusion, G126E mutant
T1 sequence (Q64288 2-163 G126E): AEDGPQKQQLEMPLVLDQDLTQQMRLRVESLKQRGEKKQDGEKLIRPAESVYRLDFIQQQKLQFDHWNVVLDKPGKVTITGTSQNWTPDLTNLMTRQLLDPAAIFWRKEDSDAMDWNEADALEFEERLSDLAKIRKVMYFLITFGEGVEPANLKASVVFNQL

[2] = target: T2, olfactory marker protein (OMP) (Mus musculus, UniProt Q64288); experiment: BRET from Rluc-OMP to fluorescent 8NBD-cAMP, dose-response (EC50 taken as apparent Kd)
T2 construct: Rluc-OMP fusion, wild type
T2 sequence (Q64288 2-163): T1 sequence (Q64288 2-163 G126E) with E125G

[3] = target: T2, olfactory marker protein (OMP); experiment: competitive BRET displacement of 8NBD-cAMP from Rluc-OMP in HEK293T lysate

Kd [2] [µM] | IC50 [3] [µM] | SMILES | BRET from mutant Rluc-OMP to 8NBD-cAMP [1]
~1.9 | – | Nc1ncnc2c1nc(SCCNc1ccc([N+](=O)[O-])c3nonc13)n2[C@@H]1O[C@@H]2COP(=O)(O)O[C@H]2[C@H]1O [8NBD-cAMP] | pocket A-mutated Rluc-OMP^G126E retained the low-affinity interaction, whereas the pocket B mutants lost their interaction with 8NBD-cAMP
– | 11 | Nc1nc2c(ncn2[C@@H]2O[C@@H]3COP(=O)(O)O[C@H]3[C@H]2O)c(=O)[nH]1 [cGMP] | –
